# According to paper PMC9425781, “Targeting integrin αvβ6 with gallium-68 tris (hydroxypyridinone) based PET probes” (Dalton Transactions (Cambridge, England : 2003), 2022):
# How the values were obtained:
# [1] = target: T1, integrin αvβ6 (pancreatic cancer BxPC-3 cells) (Homo sapiens, UniProt P06756+P18564); assay: Competitive binding assay (gamma counting, unlabelled THP-peptide vs [68Ga]Ga-labelled peptide) on BxPC-3 cells; type: cell-based; settings: for Span (best-fit value): Std. Error 0.01175 (11), 0.04901 (12), 95% CI 0.04041 to 0.08849 (11), 0.1021 to 0.3002 (12); for log IC50: non-linear regression, GraphPad Prism 9, inhibitor 0.1-5000 nM, 1 h, 37 °C, n = 4, value ± as printed in method; for LogIC50 (best-fit value): Std. Error 0.1982 (11), 0.2904 (12), 95% CI -7.123 to -6.312 (11), -7.167 to -5.993 (12); for HillSlope (best-fit value): Std. Error 0.5820 (11), 0.3994 (12), 95% CI -2.429 to -0.04897 (11), -1.659 to -0.04442 (12)
# T1 construct: endogenous in cells; host or cells: BxPC-3 pancreatic cancer cells
# T1 sequence (P06756 31-889 limits assumed): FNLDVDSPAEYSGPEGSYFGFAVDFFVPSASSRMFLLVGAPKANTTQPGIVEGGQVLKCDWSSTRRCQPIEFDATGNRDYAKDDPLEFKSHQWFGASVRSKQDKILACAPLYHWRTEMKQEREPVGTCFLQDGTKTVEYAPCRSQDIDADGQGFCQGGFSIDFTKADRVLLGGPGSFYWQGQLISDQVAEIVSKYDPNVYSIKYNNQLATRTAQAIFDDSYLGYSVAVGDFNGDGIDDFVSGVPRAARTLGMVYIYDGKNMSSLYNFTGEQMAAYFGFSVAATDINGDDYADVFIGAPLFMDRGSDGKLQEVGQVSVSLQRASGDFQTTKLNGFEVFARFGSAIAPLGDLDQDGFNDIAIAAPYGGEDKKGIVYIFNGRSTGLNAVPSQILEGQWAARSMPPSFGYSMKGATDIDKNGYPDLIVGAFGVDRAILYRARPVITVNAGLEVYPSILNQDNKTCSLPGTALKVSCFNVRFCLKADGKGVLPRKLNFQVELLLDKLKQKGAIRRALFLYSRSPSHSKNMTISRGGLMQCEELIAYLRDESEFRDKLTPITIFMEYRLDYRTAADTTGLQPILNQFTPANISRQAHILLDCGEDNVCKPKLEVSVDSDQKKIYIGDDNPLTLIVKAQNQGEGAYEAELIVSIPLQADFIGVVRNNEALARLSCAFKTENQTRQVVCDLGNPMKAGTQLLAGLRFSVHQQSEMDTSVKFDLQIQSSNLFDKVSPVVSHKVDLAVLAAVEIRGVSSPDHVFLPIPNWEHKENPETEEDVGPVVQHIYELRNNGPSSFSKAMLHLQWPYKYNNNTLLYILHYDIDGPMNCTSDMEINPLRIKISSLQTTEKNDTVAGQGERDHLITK
# T1 sequence (P06756 891-1048 partner limits assumed): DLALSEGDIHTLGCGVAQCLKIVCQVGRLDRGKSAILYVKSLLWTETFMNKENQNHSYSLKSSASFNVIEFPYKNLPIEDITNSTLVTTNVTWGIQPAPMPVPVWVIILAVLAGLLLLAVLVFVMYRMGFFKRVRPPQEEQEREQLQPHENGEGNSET
# T1 sequence (P18564 22-788): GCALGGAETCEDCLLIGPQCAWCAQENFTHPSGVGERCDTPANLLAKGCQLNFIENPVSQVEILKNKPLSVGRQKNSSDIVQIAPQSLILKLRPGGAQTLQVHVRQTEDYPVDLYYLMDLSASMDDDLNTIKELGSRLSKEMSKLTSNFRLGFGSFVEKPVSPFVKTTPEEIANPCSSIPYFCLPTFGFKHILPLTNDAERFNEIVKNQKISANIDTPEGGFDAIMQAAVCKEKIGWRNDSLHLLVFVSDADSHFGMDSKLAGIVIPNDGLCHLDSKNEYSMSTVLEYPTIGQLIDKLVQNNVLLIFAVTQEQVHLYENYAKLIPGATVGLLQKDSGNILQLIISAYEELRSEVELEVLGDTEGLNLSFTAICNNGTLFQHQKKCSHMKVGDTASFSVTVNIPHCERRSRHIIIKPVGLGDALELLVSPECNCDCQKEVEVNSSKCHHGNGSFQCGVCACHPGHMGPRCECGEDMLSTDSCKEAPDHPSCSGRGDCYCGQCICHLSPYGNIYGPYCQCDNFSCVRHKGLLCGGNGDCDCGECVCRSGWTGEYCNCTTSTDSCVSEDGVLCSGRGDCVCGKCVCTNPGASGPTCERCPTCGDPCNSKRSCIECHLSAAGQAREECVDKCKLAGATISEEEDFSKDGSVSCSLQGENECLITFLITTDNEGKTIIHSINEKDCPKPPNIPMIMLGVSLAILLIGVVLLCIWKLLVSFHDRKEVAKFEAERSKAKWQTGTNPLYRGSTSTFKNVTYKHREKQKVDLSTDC
# Method: Binding of [^68Ga]Ga-Integrin αvβ6-peptide-THP (11 and 12) to αvβ6 integrin was determined in the presence of increasing concentrations of unlabelled THP-peptide conjugate (Fig. 4).
# BxPC-3 were plated in 12-well plates at a density of 5 × 10^5 cells per well in 1 mL of complete culture medium, cultured overnight at 37 °C and 5% CO2. Radiolabelling with ^68Ga was done as described above, and a solution containing 15 MBq in 1.0 mL was prepared by dilution with distilled H2O. Eleven inhibitor (unlabelled peptide) concentrations were tested to estimate the IC50 value at 0.1, 0.5, 1, 5, 10, 50, 100, 250, 500, 1000, and 5000 nM. Four wells were used for each concentration (n = 4), prepared in 500 μL of complete media. Following the addition of the inhibitor, 20 μL of the radiolabelled peptide solution was added to each well, corresponding to 300 kbq per well (33 nM of the labelled peptide per well). The cells were then incubated for an hour at the same above-mentioned conditions. Following incubation, media were removed from the wells, and the cells were washed twice with cold PBS (500 μL per washing). For each well, the media and the washings were collected together. After the second wash, 500 μL of 1 M NaOH solution was added to each well to lyse the cells, and cell lysates were retrieved 10 minutes later ([…]). A final wash with PBS (500 μL per well) was undertaken and collected in the same tube as the cell lysate. All tubes (containing either medium and washings or lysate and washings) were gamma-counted using a Wallac 1282 Compugamma Universal Gamma Counter. The resulting values were analyzed using Graphpad Prism 9 software, and a non-linear regression curve was generated, from which the IC50 values (log IC50: −6.72 ± 0.20 for 11 and −6.58 ± 0.29 for 12) were obtained.
# [2] = system: αvβ6; settings: cited from earlier work
# From the text: The two molecules 6 and 7 were conjugated to the nonapeptide cyclo-(FRGDLAFp(NMe)K)[29] (p = D-Pro; (NMe)K = N-methyl-Lys) under mild conditions, without the assistance of any activation agent, producing the two conjugates (11 and 12, Fig. 3). Noteworthy, the arginine-glycine-aspartate (RGD) sequence in cyclic peptides is known to selectively bind αv integrins. […] Moreover, the presence of the two non-proteinogenic amino acids, na ...
# [3] = binding curve, nonlinear regression
"Span (best-fit value) [1, 3]",log IC50 [1],LogIC50 (best-fit value) ([1]; nonlinear regression),HillSlope (best-fit value) ([1]; nonlinear regression),"Top (best-fit value) ([1]; binding curve, nonlinear regression, Std. Error 0.004453 (11), 0.01334 (12), 95% CI 0.1175 to 0.1358 (11), 0.2906 to 0.3446 (12))","Bottom (best-fit value) ([1]; binding curve, nonlinear regression, Std. Error 0.01017 (11), 0.04302 (12), 95% CI 0.04141 to 0.08300 (11), 0.02951 to 0.2034 (12))",Substance,potency and selectivity for αvβ6 (in words) [2],IC50 ([2]; αvβ6)
0.06445,−6.72 ± 0.20,-6.717,-1.239,,,"cyclo-(FRGDLAFp(NMe)K)-THPs (head to tail) [compound 11, cyclo-(FRGDLAFp(NMe)K) conjugated to THP-glutaric (6)]",,
0.2012,−6.58 ± 0.29,-6.580,-0.8516,0.3176,0.1165,"cyclo-(FRGDLAFp(NMe)K)-THPs (head to tail) [compound 12, cyclo-(FRGDLAFp(NMe)K) conjugated to THP-adipic (7)]",,
,,,,,,cyclo-(FRGDLAFp(NMe)K) (head to tail) [compound 10],potent and selective binder for αvβ6,0.26 nM
